How the values were obtained:
DR5 = test: Doxycycline-inducible DR5 (wild type and Cys mutants) expression, non-reducing immunoblot; assay type: cell-based; settings: MDA-MB-468 stable cell lines, 24 h, FIG. 7E
Experimental: (§1) To assess protein disulfide bond-mediated oligomerization, cells were treated with DDAs for 24 h in 10% FBS-DMEM. Cells were subsequently scraped directly into the media and pelleted by centrifugation. Cells were extracted directly into boiling 2×-SDS-Sample Buffer containing 100 mM NEM and boiled for 10 min. Samples were sonicated, followed by centrifugation for 20 min at room temperature. Samples were subsequently analyzed by SDS-PAGE and immunoblot.

GRP78 = test: Endoplasmic reticulum stress (ERS) induction, immunoblot; assay type: cell-based; settings: MDA-MB-468 cells, 24 h
Source text: The BT20, BT474, BT549, MCF7, MDA-MB-231, MDA-MB-436, MDA-MB-468, HCC1143, HCC1500, HCC1569, HCC1937, HCC1954, Hs578t, and T47D cells lines were purchased from American Type Culture Collection (ATCC) (Manassas, VA). The HCI-001 cell line was derived from an ER-/PR-/HER2- patient-derived xenograft originally isolated from a patient as described previously (DeRose Y S, et al. Nat Med 2011; 17: 1514-1520). The HCI-001/LVM2 model was derived from the HCI-001 cell line by performing two rounds of selection for liver metastasis, as described previously (Wang M, et al. Cell Death Discovery 2019; 5: 153). Cell lines were grown in Dulbecco's Modified Eagle's Medium (GE Healthcare Life Sciences, Logan, UT) containing 10% fetal bovine serum (10% FBS—DMEM) in a humidified incubator with 5% CO2 at 37° C. Cell lysates were prepared as described previously (Law B K, et al. Mol Cell Biol. 2002; 22: 8184-8198). Immunoblot analysis was performed utilizing the following antibodies purchased from Cell Signaling Technology (Beverly, MA) [Akt, #4691; P-Akt[T308], #13038; ATF4, #11815; CHOP, #2895; Cleaved Caspase 8, #9496; DR4, #42533; DR5, #8074; EGFR, #4267; GRP78, #3177; HER3, #4754; PARP, #9532; PDIA1, #3501; XBP1s, #12782], from Santa Cruz Biotechnology (Santa Cruz, CA) [Actin, sc-47778; AGR2/3, sc-376653; AGR3, sc-390940; ERO1-a, sc-100805; and ERp44, sc-393687], or from Rockland Immunochemicals, Inc. (Limerick, PA), Streptavidin-Alkaline Phosphatase conjugated (SA-AP), S000-05.
as §1

PDIA1 = PDIA1 (Homo sapiens, UniProt P07237); test: In vitro binding assay with recombinant purified PDIA1; settings: pre-incubation with a molar excess, FIG. 3D
Experimental: Purified His6-AGR2 or His6-AGR2 C81S, as prepared above, or His6-AGR2 (PRO-580) or His6-AGR3 (PRO-242) obtained from ProSpec (New Brunswick NJ) were incubated with or without varying concentrations of the unlabeled DDA competitors, tcyDTDO or dMtcyDTDO, and 30 μM Biotin-GlyPyrDTDO or Biotin-PyrDTDO in buffer (20 mM HEPES (pH 7.4), 1 mM EDTA, 1 mM EGTA, 5% Glycerol, 1 nM Microcystin, 1 mM Na3VO4, and 40 mM Na2H2P2O7) containing 1% Triton-X 100 for 30 min at 37° C. […] Therefore, the two probes were used interchangeably. Reactions were stopped by boiling the samples in 2×-SDS-Sample Buffer containing 100 mM NEM for 10 min. Biotin-DDA labeling of protein was verified by blotting with Streptavidin-Alkaline Phosphatase (Rockland Immunochemicals, Inc., Limerick, PA). ERp44 (PRO-547) and PDIA1 (ENZ-262) were obtained from ProSpec and used in experiments examining the binding of these proteins to Biotin-PyrDTDO.

ERp44/DR5 complexes [1] = molecular target: T1, ERp44/DR5 complexes (Homo sapiens, UniProt Q9BS26); test: ERp44 co-immunoprecipitation; assay type: cell-based; settings: MDA-MB-468 cells inducibly expressing Δ81-178 DR5, 24 h, FIG. 7D
T1 construct: endogenous in cells; host or cells: MDA-MB-468
T1 sequence (Q9BS26 30-406, one chain of several): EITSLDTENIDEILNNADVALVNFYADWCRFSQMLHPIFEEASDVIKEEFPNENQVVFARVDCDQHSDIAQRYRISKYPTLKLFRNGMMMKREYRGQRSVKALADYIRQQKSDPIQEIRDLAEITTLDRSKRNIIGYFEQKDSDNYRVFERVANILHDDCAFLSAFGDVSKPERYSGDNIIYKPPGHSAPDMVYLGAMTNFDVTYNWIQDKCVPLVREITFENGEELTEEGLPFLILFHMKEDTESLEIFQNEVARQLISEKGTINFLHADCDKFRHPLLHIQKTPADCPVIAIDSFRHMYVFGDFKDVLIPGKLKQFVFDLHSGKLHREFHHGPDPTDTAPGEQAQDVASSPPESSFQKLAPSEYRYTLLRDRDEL

ERp44/DR5 complexes [2] = molecular target: T2, ERp44/DR5 complexes (Homo sapiens, UniProt Q9BS26); test: ERp44 co-immunoprecipitation; assay type: cell-based; settings: MDA-MB-468 cells inducibly expressing wild type DR5, 24 h, FIG. 7D
T2 construct: endogenous in cells; host or cells: MDA-MB-468
T2 sequence (Q9BS26 30-406): as the sequence (Q9BS26 30-406, one chain of several) above
T2 sequence (O14763 56-440 partner): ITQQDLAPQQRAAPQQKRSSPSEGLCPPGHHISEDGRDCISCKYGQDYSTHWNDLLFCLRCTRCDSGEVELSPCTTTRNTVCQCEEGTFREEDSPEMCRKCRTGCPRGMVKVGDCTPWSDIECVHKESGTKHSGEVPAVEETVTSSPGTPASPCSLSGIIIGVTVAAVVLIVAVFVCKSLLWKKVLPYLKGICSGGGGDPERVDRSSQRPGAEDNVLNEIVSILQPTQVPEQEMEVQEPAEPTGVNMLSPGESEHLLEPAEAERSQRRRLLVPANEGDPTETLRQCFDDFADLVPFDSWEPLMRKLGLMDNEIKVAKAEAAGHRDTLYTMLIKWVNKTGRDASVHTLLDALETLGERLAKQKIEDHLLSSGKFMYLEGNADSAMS

Chain of PDIA1 (P07237 18-508): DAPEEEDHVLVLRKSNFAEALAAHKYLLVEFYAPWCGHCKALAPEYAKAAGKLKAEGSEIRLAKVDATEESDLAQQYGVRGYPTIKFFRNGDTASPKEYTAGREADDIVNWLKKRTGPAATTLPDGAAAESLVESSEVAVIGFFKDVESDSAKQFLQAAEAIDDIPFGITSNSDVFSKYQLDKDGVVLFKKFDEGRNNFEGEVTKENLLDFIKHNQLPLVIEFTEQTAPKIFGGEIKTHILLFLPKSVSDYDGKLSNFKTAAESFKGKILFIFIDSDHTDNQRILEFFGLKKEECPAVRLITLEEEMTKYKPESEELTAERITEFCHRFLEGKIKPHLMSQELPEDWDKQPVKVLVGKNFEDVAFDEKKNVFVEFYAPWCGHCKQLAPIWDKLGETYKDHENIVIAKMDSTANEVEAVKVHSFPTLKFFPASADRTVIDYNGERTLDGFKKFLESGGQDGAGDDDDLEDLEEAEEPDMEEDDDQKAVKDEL

## CO[C@H]1C[C@@H]2CS(=O)(=O)SC[C@H]2C[C@@H]1OC [dMtcyDTDO, dimethoxy-tcyDTDO]
DR5
  Expression of C119S or C160S DR5 mutants: did not further increase expression of the C119S or C160S DR5 mutants
  Wild type DR5 expression on co-treatment with doxycycline: further increased DR5 expression
GRP78; FIG. 1E right
  Concentration at which induction of ERS (GRP78 elevation) was detected: 625 nM
GRP78; compared with tcyDTDO, FIG. 1E left
  ERS at the same concentration: greater ERS
PDIA1
  Block of Biotin-PyrDTDO biotinylation of PDIA1: biotinylation was blocked
ERp44/DR5 complexes [1]
  ERp44 binding to DR5[Δ81-178] in treated cells: barely detectable
ERp44/DR5 complexes [2]
  ERp44 binding to wild type DR5 in treated cells: wild type DR5 bound ERp44

From patent publication US20240118281A1, “ANTICANCER COMPOUNDS AND USES THEREOF” (University of Florida Research Foundation, Incorporated, priority 2021, published 2024)
